Where a name gives a salt, the structure may show the parent alone.
Columns and labels:
[1] = tested on: human fat suspension; assay: In vitro glycerol production assay, 250 mg/ml human fat suspension (Example 9); format: cell-based; conditions: for Glycerol production (FIG. 20): 250 mg/ml human fat suspension, 4 hrs at 37 degrees Celsius; for Glycerol content: 4 hrs at 37° C.
Experimental: Test compounds were added at a concentration as indicated and vials were incubated for 4 hrs at 37° C. Vials were mixed every hour. Glycerol production in 4 hrs was calculated by analyzing glycerol content of the control (a suspension which was not incubated but instead immediately frozen) vs control samples that were incubated for 4 hours. The produced glycerol quantity was set as 100%. The glycerol content of experimental samples was expressed as % of the control.
Experimental samples were frozen after incubation. The fat pellet was removed and upon defrosting, samples were spun down (13000 rpm for 15 min at 4° C.), and clear supernatant was pipetted off and frozen until analysis.
Glycerol was analyzed using an enzymatic kit (Glycerol Assay Kit, Sigma Aldrich). Briefly, in a 96 well plate (Corning), 100 microliter glycerol assay reaction mix was added to 10 microliter samples of supernatant and left to incubate for 20 minutes after shaking for 15 seconds. Absorbance was read by a platereader (Thermo Multiskan FC) at 570 nm. A glycerol calibration line (0.015 microM-1000 microM) was used for quantification.

[2] = Stability / hydrolysis in PBS at 37 degrees (Example 6); format: physicochemical; conditions: PBS at 37 degrees
Experimental: Samples were analyzed using HPLC UV.

[3] = tested on: lipase; conditions: inhibitor added 5 minutes before, relative to control; for Effect on hydrolysis of octopamine decanoate in fat suspension: octopamine decanoate 10 microM; for Effect on hydrolysis of synephrine decanoate in fat suspension: synephrine decanoate 10 microM
[4] = female, human, 15 min, 10 microM
Experimental: Human belly adipose tissue was obtained from obese female subjects that underwent esthetic surgery. Tissue was pottered (Potter RW 19 Nr 29795 of Janke & Kunkel KG) in PBS solution (Irvine Scientific) with 5 mM D(+)-glucose monohydrate at 530 rpm using a Teflon potter tip.
Tissue suspension (1, 7.5, 25 or 240 mg fat/ml PBS, or plasma) was stirred and 1.98 ml aliquots were transferred to polypropylene 2 ml screwcap vials (Sarstedt). […] When inhibition of lipase was studied, propranolol or orlistat were added 5 minutes before addition of the prodrug esters (FIG. 10).
15 minutes after addition of the prodrug, lipolysis was stopped by adding 20 microliter of 1.8% HCl. Samples were spun down (13000 rpm for 3 min at 4° C.) and supernatants were stored at −18° C. for analysis.
Samples were analyzed using HPLC UV. A Gilson 234 auto-injector and Shimadzu hplc pump (10 AdVP) was used in conjunction with a shimadzu UV (10AVp) set at 270 nm. Samples were separated using a reversed phase HPLC column (Thermo BDS Hypersil C18 150 mm×2.1 mm, 3 micrometer). The mobile phase consisted of 1.6 g KH2PO4, 110 mg sodium 1-heptane sulfonate, 1 1 ultrapure water, 15 mL methanol and 1 ml acetic acid at a flowrate of 0.175 ml/min.

C[C@H](Cc1ccc2c(c1)OC(C(=O)[O-])(C(=O)[O-])O2)NC[C@H](O)c1cccc(Cl)c1.[Na+].[Na+] [CL 316243]
Glycerol production (FIG. 20) [1]: increased

COC(=O)[C@@H]1[C@H]2C[C@H]3c4[nH]c5ccccc5c4CCN3C[C@@H]2CC[C@@H]1O [yohimbine, Yohimbine]
Glycerol production (FIG. 20) [1]: increased

Cc1cccc(C)c1N=C1NCCCS1 [xylazine, Xylazine]
Glycerol production (FIG. 20) [1]: reduced

CCc1ccccc1OC[C@@H](O)CN[C@H]1CCCc2ccccc21 [SR 59230]
Glycerol production (FIG. 20) [1]: reduced

CNCC(O)c1ccc(O)cc1 (racemic) [synephrine, p-synephrine, reference compound]
Stability in PBS [2]: stable

CC(C)NC[C@H](O)COc1cccc2ccccc12 [propranolol, (S)-(-)-Propranolol HCl]
Glycerol content ([1]; concentrations above 1000 nM): decreased | Glycerol content ([1]; concentrations from 0.1 to at least 1000 nM): more or less constant | Effect on hydrolysis of octopamine decanoate in fat suspension [3]: decreases | Effect on hydrolysis of synephrine decanoate in fat suspension [3]: decreases

CC(C)(C)NCC(O)COc1cccc2[nH]c(=O)[nH]c12 (stereo not shown) [CGP12177]
Glycerol production (FIG. 20) [1]: increased

CCOC(=O)COc1ccc2c(c1)C[C@@H](NC[C@H](O)c1cccc(Cl)c1)CC2 [SR 58611A, Amibegron]
Glycerol production (FIG. 20) [1]: increased

CCCCCCCCCC(=O)Oc1ccc(C(O)CNC)cc1 (stereo not shown) [synephrine decanoate, 4-(1-hydroxy-2-(methylamino)ethyl)phenyl decanoate]
Hydrolysis in PBS compared with plasma or fat tissue [2]: much lower rate | Base level of hydrolysis in fat suspension [4]: 40-45%

Cn1c(=O)c2c(ncn2C)n(C)c1=O [caffeine]
Glycerol production (FIG. 20) [1]: increased

CCCCCCCCCCC[C@@H](C[C@@H]1OC(=O)[C@H]1CCCCCC)OC(=O)[C@H](CC(C)C)NC=O [Orlistat]
Effect on hydrolysis of octopamine decanoate in fat suspension [3]: further suppresses | Effect on hydrolysis of synephrine decanoate in fat suspension [3]: further suppresses
